*1 amine or outer side, *2 acyl side, *3 side chain or, on linkers, in order; H or OH if unused. Where a SMILES comes first, the peptide text is derived from it. Side-chain parts run from the residue outwards. [ ]: non-standard residue; d: D form. The star is where a group is joined. C20 diacid = O=C(O)CCCCCCCCCCCCCCCCCCC(=O)*; C18 diacid = O=C(O)CCCCCCCCCCCCCCCCC(=O)*; αMePhe(2-F) = C[C@](N)(Cc1ccccc1F)C(=O)O; γGlu = O=C(O)[C@H](CCC(=O)[*:2])N[*:1]; αMeY = C[C@](N)(Cc1ccc(O)cc1)C(=O)O; αMeL = CC(C)C[C@](C)(N)C(=O)O; AEEA = NCCOCCOCC(=O)O; Aib = CC(C)(N)C(=O)O
Assays:
[1] = target: T1, human GcgR (Homo sapiens, UniProt P47871); experiment: [125I]-Glucagon binding, SPA with WGA beads, 0.1% bacitracin; conditions: geometric mean, read-out: hGcgR Ki
T1 construct: expressed in transfected cells; crude membranes
T1 sequence (P47871 26-477): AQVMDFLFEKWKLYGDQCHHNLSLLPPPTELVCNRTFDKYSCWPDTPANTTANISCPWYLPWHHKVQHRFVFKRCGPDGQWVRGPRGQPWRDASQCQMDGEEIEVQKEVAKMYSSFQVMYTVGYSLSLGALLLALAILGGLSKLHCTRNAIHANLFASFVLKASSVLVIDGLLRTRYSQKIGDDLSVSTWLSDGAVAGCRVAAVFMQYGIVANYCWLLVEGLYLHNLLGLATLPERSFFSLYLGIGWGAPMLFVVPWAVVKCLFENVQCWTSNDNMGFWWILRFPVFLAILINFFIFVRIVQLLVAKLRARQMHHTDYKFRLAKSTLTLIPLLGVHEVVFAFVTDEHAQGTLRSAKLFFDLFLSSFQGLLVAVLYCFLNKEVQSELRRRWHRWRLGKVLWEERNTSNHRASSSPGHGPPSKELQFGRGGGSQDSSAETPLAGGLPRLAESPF
How it was run: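 SPA competition binding with WGA beads on crude membranes from HEK293 cells stably expressing hGcgR. Buffer: 25 mM HEPES pH 7.4, 2.5 mM CaCl2, 1 mM MgCl2, 0.1% bacitracin, 0.003% Tween-20; 10-point 3-fold dilutions, NSB with 1 μM Gcg.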

[2] = target: T2, human GLP-1R (Homo sapiens, UniProt P43220); experiment: [125I]-GLP-1 binding, SPA with WGA beads, 0.1% bacitracin; conditions: geometric mean, read-out: hGLP1R Ki
T2 construct: expressed in transfected cells; crude membranes
T2 sequence (P43220 24-463): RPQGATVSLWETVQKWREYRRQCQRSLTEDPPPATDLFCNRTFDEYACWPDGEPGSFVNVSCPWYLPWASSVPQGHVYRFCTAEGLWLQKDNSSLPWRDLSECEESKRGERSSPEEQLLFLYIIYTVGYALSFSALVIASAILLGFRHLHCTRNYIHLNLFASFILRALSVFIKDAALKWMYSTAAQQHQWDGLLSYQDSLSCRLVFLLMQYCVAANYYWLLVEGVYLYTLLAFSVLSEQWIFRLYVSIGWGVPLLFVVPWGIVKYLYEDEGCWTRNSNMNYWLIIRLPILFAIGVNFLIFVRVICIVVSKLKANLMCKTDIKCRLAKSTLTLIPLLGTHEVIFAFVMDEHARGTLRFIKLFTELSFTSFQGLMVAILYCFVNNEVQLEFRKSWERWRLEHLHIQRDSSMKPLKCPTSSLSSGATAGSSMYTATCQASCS
How it was run: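 Binding buffer was 25 mM HEPES pH 7.4 with 2.5 mM CaCl2, 1 mM MgCl2, 0.1% (w/v) bacitracin, 0.003% Tween-20 and EDTA-free protease inhibitors. Four-parameter regression gave IC50, converted to Ki (geometric mean, SEM, n independent days).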

Structure (SMILES)	Ki [1]	Ki [2]
CC[C@H](C)[C@H](NC(=O)[C@H](Cc1ccccc1)NC(=O)[C@@H](NC(=O)CNC(=O)[C@H](CCC(=O)O)NC(=O)C(C)(C)NC(=O)[C@@H](N)Cc1ccc(O)cc1)[C@@H](C)O)C(=O)N[C@@H](CO)C(=O)N[C@@H](CC(=O)O)C(=O)N[C@@H](Cc1ccc(O)cc1)C(=O)N[C@@H](CO)C(=O)N[C@H](C(=O)N[C@@](C)(CC(C)C)C(=O)N[C@@H](CC(C)C)C(=O)N[C@@H](CC(=O)O)C(=O)N[C@@H](CCCCN)C(=O)N[C@@H](CCCCNC(=O)COCCOCCNC(=O)COCCOCCNC(=O)CC[C@H](NC(=O)CCCCCCCCCCCCCCCCCCC(=O)O)C(=O)O)C(=O)N[C@@H](Cc1c[nH]cn1)C(=O)N[C@@H](CCC(N)=O)C(=O)NC(C)(C)C(=O)N[C@@H](CC(=O)O)C(=O)N[C@@H](Cc1ccccc1)C(=O)N[C@H](C(=O)N[C@@H](CCC(=O)O)C(=O)N[C@@](C)(Cc1ccc(O)cc1)C(=O)N[C@@H](CC(C)C)C(=O)N[C@@H](CC(C)C)C(=O)N[C@@H](CCC(=O)O)C(=O)N[C@@H](C)C(=O)NCC(=O)N1CCC[C@H]1C(=O)N[C@@H](CO)C(=O)N[C@@H](CO)C(=O)NCC(=O)N[C@@H](C)C(=O)N1CCC[C@H]1C(=O)N1CCC[C@H]1C(=O)N1CCC[C@H]1C(=O)N[C@@H](CO)C(N)=O)C(C)C)[C@@H](C)CC [Example 90] (H-Y[Aib]EGTFISDYSI[αMeL]LDKK([AEEA-AEEA-γGlu-C20 diacid])HQ[Aib]DFVE[αMeY]LLEAGPSSGAPPPS-NH2)	112 nM	102 nM
CC[C@H](C)[C@H](NC(=O)[C@H](Cc1ccccc1)NC(=O)[C@@H](NC(=O)CNC(=O)[C@H](CCC(=O)O)NC(=O)C(C)(C)NC(=O)[C@@H](N)Cc1ccc(O)cc1)[C@@H](C)O)C(=O)N[C@@H](CO)C(=O)N[C@@H](CC(=O)O)C(=O)N[C@@H](Cc1ccc(O)cc1)C(=O)N[C@@H](CO)C(=O)N[C@H](C(=O)N[C@@](C)(CC(C)C)C(=O)N[C@@H](CC(C)C)C(=O)N[C@@H](CC(=O)O)C(=O)N[C@@H](CCCCN)C(=O)N[C@@H](CCCCNC(=O)COCCOCCNC(=O)COCCOCCNC(=O)CC[C@H](NC(=O)CCCCCCCCCCCCCCCCCCC(=O)O)C(=O)O)C(=O)N[C@@H](Cc1c[nH]cn1)C(=O)N[C@@H](CCC(N)=O)C(=O)NC(C)(C)C(=O)N[C@@H](CC(=O)O)C(=O)N[C@@H](Cc1ccccc1)C(=O)N[C@H](C(=O)N[C@@H](CCC(=O)O)C(=O)N[C@@](C)(Cc1ccc(O)cc1)C(=O)N[C@@H](CC(C)C)C(=O)N[C@@H](CC(C)C)C(=O)N[C@@H](CCC(=O)O)C(=O)NCC(=O)NCC(=O)N1CCC[C@H]1C(=O)N[C@@H](CO)C(=O)N[C@@H](CO)C(=O)NCC(=O)N[C@@H](C)C(=O)N1CCC[C@H]1C(=O)N1CCC[C@H]1C(=O)N1CCC[C@H]1C(=O)N[C@@H](CO)C(N)=O)C(C)C)[C@@H](C)CC [Example 91] (H-Y[Aib]EGTFISDYSI[αMeL]LDKK([AEEA-AEEA-γGlu-C20 diacid])HQ[Aib]DFVE[αMeY]LLEGGPSSGAPPPS-NH2)	54.4 nM	37.4 nM
CC[C@H](C)[C@H](NC(=O)[C@H](CCCCN)NC(=O)[C@H](CC(=O)O)NC(=O)[C@H](CC(C)C)NC(=O)[C@](C)(CC(C)C)NC(=O)[C@@H](NC(=O)[C@H](CO)NC(=O)[C@H](Cc1ccc(O)cc1)NC(=O)[C@H](CC(=O)O)NC(=O)[C@H](CO)NC(=O)[C@@H](NC(=O)[C@H](Cc1ccccc1)NC(=O)[C@@H](NC(=O)CNC(=O)[C@H](CCC(=O)O)NC(=O)C(C)(C)NC(=O)[C@@H](N)Cc1ccc(O)cc1)[C@@H](C)O)[C@@H](C)CC)[C@@H](C)CC)C(=O)N[C@@H](Cc1c[nH]cn1)C(=O)N[C@@H](CCC(N)=O)C(=O)NC(C)(C)C(=O)N[C@@H](CC(=O)O)C(=O)N[C@@H](Cc1ccccc1)C(=O)N[C@H](C(=O)N[C@@H](CCC(=O)O)C(=O)N[C@@H](Cc1ccc(O)cc1)C(=O)N[C@@H](CCCCNC(=O)COCCOCCNC(=O)COCCOCCNC(=O)CC[C@H](NC(=O)CCCCCCCCCCCCCCCCCCC(=O)O)C(=O)O)C(=O)N[C@@H](CC(C)C)C(=O)N[C@@H](CCC(=O)O)C(=O)N[C@@H](CCC(N)=O)C(=O)NCC(=O)N1CCC[C@H]1C(=O)N[C@@H](CO)C(=O)N[C@@H](CO)C(=O)NCC(=O)N[C@@H](C)C(=O)N1CCC[C@H]1C(=O)N1CCC[C@H]1C(=O)N1CCC[C@H]1C(=O)N[C@@H](CO)C(N)=O)C(C)C [Example 92] (H-Y[Aib]EGTFISDYSI[αMeL]LDKIHQ[Aib]DFVEYK([AEEA-AEEA-γGlu-C20 diacid])LEQGPSSGAPPPS-NH2)	> 958 nM	> 902 nM
CC[C@H](C)[C@H](NC(=O)[C@H](CCCCN)NC(=O)[C@H](CC(=O)O)NC(=O)[C@H](CC(C)C)NC(=O)[C@H](CC(C)C)NC(=O)[C@@H](NC(=O)[C@H](CO)NC(=O)[C@H](Cc1ccc(O)cc1)NC(=O)[C@H](CC(=O)O)NC(=O)[C@H](CO)NC(=O)[C@@H](NC(=O)[C@H](Cc1ccccc1)NC(=O)[C@@H](NC(=O)CNC(=O)[C@H](CCC(=O)O)NC(=O)[C@@H](C)NC(=O)[C@@H](N)Cc1ccc(O)cc1)[C@@H](C)O)[C@@H](C)CC)[C@@H](C)CC)C(=O)N[C@@H](C)C(=O)N[C@@H](CCC(N)=O)C(=O)NC(C)(C)C(=O)N[C@@H](CC(=O)O)C(=O)N[C@@H](Cc1ccccc1)C(=O)N[C@H](C(=O)N[C@@H](CC(N)=O)C(=O)N[C@@H](Cc1c[nH]c2ccccc12)C(=O)N[C@@H](CCCCNC(=O)COCCOCCNC(=O)COCCOCCNC(=O)CC[C@H](NC(=O)CCCCCCCCCCCCCCCCC(=O)O)C(=O)O)C(=O)N[C@@H](CC(C)C)C(=O)N[C@@H](C)C(=O)N[C@@H](CCC(N)=O)C(=O)NCC(=O)N1CCC[C@H]1C(=O)N[C@@H](CO)C(=O)N[C@@H](CO)C(=O)NCC(=O)N[C@@H](C)C(=O)N1CCC[C@H]1C(=O)N1CCC[C@H]1C(=O)N1CCC[C@H]1C(=O)N[C@@H](CO)C(N)=O)C(C)C [Example 93] (H-Y[dA]EGTFISDYSILLDKIAQ[Aib]DFVNWK([AEEA-AEEA-γGlu-C18 diacid])LAQGPSSGAPPPS-NH2)	> 959 nM	> 909 nM
CC[C@H](C)[C@H](NC(=O)[C@H](CO)NC(=O)[C@H](Cc1ccc(O)cc1)NC(=O)[C@H](CC(=O)O)NC(=O)[C@H](CO)NC(=O)[C@@H](NC(=O)[C@](C)(Cc1ccccc1F)NC(=O)[C@@H](NC(=O)CNC(=O)[C@H](CCC(=O)O)NC(=O)C(C)(C)NC(=O)[C@@H](N)Cc1ccc(O)cc1)[C@@H](C)O)[C@@H](C)CC)C(=O)N[C@@H](C)C(=O)N[C@@H](CC(C)C)C(=O)N[C@@H](CC(=O)O)C(=O)N[C@@H](CCCCN)C(=O)N[C@H](C(=O)N[C@@H](Cc1c[nH]cn1)C(=O)N[C@@H](CCC(N)=O)C(=O)NC(C)(C)C(=O)N[C@@H](CCC(=O)O)C(=O)N[C@@H](Cc1ccccc1)C(=O)N[C@H](C(=O)N[C@@H](CC(N)=O)C(=O)N[C@@H](Cc1ccc(O)cc1)C(=O)N[C@@H](CCCCNC(=O)COCCOCCNC(=O)COCCOCCNC(=O)CC[C@H](NC(=O)CCCCCCCCCCCCCCCCC(=O)O)C(=O)O)C(=O)N[C@@H](CC(C)C)C(=O)N[C@@H](C)C(=O)NCC(=O)NCC(=O)N1CCC[C@H]1C(=O)N[C@@H](CO)C(=O)N[C@@H](CO)C(=O)NCC(=O)N[C@@H](C)C(=O)N1CCC[C@H]1C(=O)N1CCC[C@H]1C(=O)N1CCC[C@H]1C(=O)N[C@@H](CO)C(N)=O)C(C)C)[C@@H](C)CC [Example 94] (H-Y[Aib]EGT[αMePhe(2-F)]ISDYSIALDKIHQ[Aib]EFVNYK([AEEA-AEEA-γGlu-C18 diacid])LAGGPSSGAPPPS-NH2)	114 nM	> 909 nM
CC[C@H](C)[C@H](NC(=O)[C@H](CO)NC(=O)[C@H](Cc1ccc(O)cc1)NC(=O)[C@H](CC(=O)O)NC(=O)[C@H](CO)NC(=O)[C@@H](NC(=O)[C@](C)(Cc1ccccc1F)NC(=O)[C@@H](NC(=O)CNC(=O)[C@H](CCC(=O)O)NC(=O)C(C)(C)NC(=O)[C@@H](N)Cc1ccc(O)cc1)[C@@H](C)O)[C@@H](C)CC)C(=O)N[C@@H](C)C(=O)N[C@@H](CC(C)C)C(=O)N[C@@H](CC(=O)O)C(=O)N[C@@H](CCCCN)C(=O)N[C@H](C(=O)N[C@@H](Cc1c[nH]cn1)C(=O)N[C@@H](CCC(N)=O)C(=O)NC(C)(C)C(=O)N[C@@H](CCC(=O)O)C(=O)N[C@@H](Cc1ccccc1)C(=O)N[C@H](C(=O)N[C@@H](CC(N)=O)C(=O)N[C@@H](Cc1ccc(O)cc1)C(=O)N[C@@H](CCCCNC(=O)COCCOCCNC(=O)COCCOCCNC(=O)CC[C@H](NC(=O)CCCCCCCCCCCCCCCCCCC(=O)O)C(=O)O)C(=O)N[C@@H](CC(C)C)C(=O)N[C@@H](CCC(=O)O)C(=O)NCC(=O)NCC(=O)N1CCC[C@H]1C(=O)N[C@@H](CO)C(=O)N[C@@H](CO)C(=O)NCC(=O)N[C@@H](C)C(=O)N1CCC[C@H]1C(=O)N1CCC[C@H]1C(=O)N1CCC[C@H]1C(=O)N[C@@H](CO)C(N)=O)C(C)C)[C@@H](C)CC [Example 95] (H-Y[Aib]EGT[αMePhe(2-F)]ISDYSIALDKIHQ[Aib]EFVNYK([AEEA-AEEA-γGlu-C20 diacid])LEGGPSSGAPPPS-NH2)	85 nM	832 nM

Source: patent US12723063B2, “GIPR-agonist compounds” (Eli Lilly and Company, priority 2019, dated 2026)
